From patent US10815274B2, “Immunogenic WT-1 peptides and methods of use thereof” (Memorial Sloan Kettering Cancer Center, priority 2012, dated 2020)
Where a SMILES comes first, the peptide text is derived from it.

What was measured:
[1] = system: WT1+ allo APC with restricting HLA allele loaded with WT1 peptide; experiment: Cr51 release assay, cytotoxic CTL response vs peptide loaded allogeneic APC sharing restricting HLA allele (HLA restriction); conditions: for Cytotoxic CTL response, % vs WT1+ allo APC with restricting HLA allele loaded with WT1 peptide: 50:1 E:T
[2] = system: WT1- allo APC with restricting HLA allele; experiment: Cr51 release assay, cytotoxic CTL response vs unloaded allogeneic APC sharing restricting HLA allele; format: cell-based, human; conditions: 50:1 E:T
WT1- autologous APC = experiment: Cr51 release assay, cytotoxic CTL response vs unmodified autologous APC; format: cell-based, human; conditions: 50:1 E:T
[3] = system: WT1 peptide loaded autologous APC; experiment: Cr51 release assay, cytotoxic CTL response vs peptide loaded autologous APC; format: cell-based, human; conditions: 50:1 E:T
WT1+ leukemia = experiment: Cr51 release assay, cytotoxic CTL response vs WT1+ leukemia expressing restricting HLA allele; format: cell-based, human; conditions: 50:1 E:T
From the text: (§1) Twenty-four primary leukemic cells and 1 leukemic cell line were characterized for their expression of WT1 by intracellular FACS staining using murine anti-human WT1 monoclonal antibodies (Neomarkers, Fremont, Calif.) as previously described (32,38) The WT1+ leukemias included blast cells from 11 primary AMLs, 3 primary ALLs and 1B-cell precursor ALL cell line. Ten WT1-leukemias, were used as controls, and included 3 B-cell precursor ALLs and 7 AMLs.
PHA blasts were not available from every patient that provided leukemia blasts for this study.

WT1- leukemia = experiment: Cr51 release assay, cytotoxic CTL response vs WT1- leukemia; format: cell-based, human; conditions: 50:1 E:T
From the text: as §1

Row | SMILES | Cytotoxic CTL response, % vs WT1+ allo APC with restricting HLA allele loaded with WT1 peptide ([1]; HLA allele A0201) [%] | Cytotoxic CTL response, % vs WT1- allo APC with restricting HLA allele ([2]; HLA allele A0201) [%] | Cytotoxic CTL response, % vs WT1- autologous APC (WT1- autologous APC; HLA allele A0201) [%] | Cytotoxic CTL response, % vs WT1 peptide loaded autologous APC ([3]; HLA allele A0201) [%] | Cytotoxic CTL response, % vs WT1+ leukemia (WT1+ leukemia; HLA allele A0201) [%] | Cytotoxic CTL response, % vs WT1- leukemia (WT1- leukemia; HLA allele A0201) [%] | Cytotoxicity of T-cells restricted by HLA A0201 against loaded targets [1] | other results
1 | CC(C)C[C@H](NC(=O)[C@H](C)NC(=O)[C@H](CC(N)=O)NC(=O)[C@H](CC(C)C)NC(=O)[C@H](CC(=O)O)NC(=O)[C@@H](N)CCCNC(=N)N)C(=O)N[C@@H](CC(C)C)C(=O)N1CCC[C@H]1C(=O)N[C@@H](C)C(=O)N[C@H](C(=O)O)C(C)C [SEQ ID NO: 152] (H-RDLNALLPAV-OH; N-terminus and C-terminus assumed) | 31 | 4 | 2 | 51 | 9 | 0 | – | Cytotoxic CTL response, % vs WT1+ allo APC with restricting HLA allele loaded with WT1 peptide ([1]; HLA allele B5701): 22%; Cytotoxic CTL response, % vs WT1- allo APC with restricting HLA allele ([2]; HLA allele B5701): 1%; Cytotoxic CTL response, % vs WT1- autologous APC (WT1- autologous APC; HLA allele B5701): 3%; Cytotoxic CTL response, % vs WT1 peptide loaded autologous APC ([3]; HLA allele B5701): 44%
2 | CC(C)C[C@H](N)C(=O)N[C@@H](CC(=O)O)C(=O)N[C@@H](Cc1ccccc1)C(=O)N[C@@H](C)C(=O)N1CCC[C@H]1C(=O)N1CCC[C@H]1C(=O)NCC(=O)N[C@@H](C)C(=O)N[C@@H](CO)C(=O)O [SEQ ID NO: 155] (H-LDFAPPGAS-OH; N-terminus and C-terminus assumed) | 62 | 1 | 0 | 73 | 40 | 0 | able to lyse | –
3 | CC(C)C[C@H](N)C(=O)N[C@@H](CC(=O)O)C(=O)N[C@@H](Cc1ccccc1)C(=O)N[C@@H](C)C(=O)N1CCC[C@H]1C(=O)N1CCC[C@H]1C(=O)NCC(=O)N[C@@H](C)C(=O)N[C@@H](CO)C(=O)N[C@@H](C)C(=O)N[C@@H](Cc1ccc(O)cc1)C(=O)O [SEQ ID NO: 156] (H-LDFAPPGASAY-OH; N-terminus and C-terminus assumed) | – | – | – | – | – | – | able to lyse | Cytotoxic CTL response, % vs WT1+ allo APC with restricting HLA allele loaded with WT1 peptide ([1]; HLA allele DRB10402): 71%; Cytotoxicity of class II HLA-restricted T-cells against loaded targets ([1]; targets sharing the alleles DRB1 0402 and DQB1 0302): selectively cytotoxic; Cytotoxic CTL response, % vs WT1- allo APC with restricting HLA allele ([2]; HLA allele DRB10402): 1%; Cytotoxic CTL response, % vs WT1- autologous APC (WT1- autologous APC; HLA allele DRB10402): 0%; Cytotoxic CTL response, % vs WT1 peptide loaded autologous APC ([3]; HLA allele DRB10402): 73%; Cytotoxic CTL response, % vs WT1+ leukemia (WT1+ leukemia; HLA allele DRB10402): 40%; Cytotoxic CTL response, % vs WT1- leukemia (WT1- leukemia; HLA allele DRB10402): 0%
4 | C[C@H](NC(=O)[C@@H]1CCCN1)C(=O)N1CCC[C@H]1C(=O)N1CCC[C@H]1C(=O)N1CCC[C@H]1C(=O)N1CCC[C@H]1C(=O)N1CCC[C@H]1C(=O)N1CCC[C@H]1C(=O)N1CCC[C@H]1C(=O)O [SEQ ID NO: 158] (H-PAPPPPPPP-OH; N-terminus and C-terminus assumed) | 18 | 1 | 2 | 40 | 0 | 0 | – | –
5 | CSCC[C@H](NC(=O)[C@@H]1CCCN1C(=O)[C@H](CC(=O)O)NC(=O)[C@H](CCC(=O)O)NC(=O)[C@H](Cc1c[nH]cn1)NC(=O)[C@H](CCCCN)NC(=O)[C@H](Cc1ccccc1)NC(=O)[C@H](CO)NC(=O)[C@@H](N)Cc1c[nH]cn1)C(=O)O [SEQ ID NO: 165] (H-HSFKHEDPM-OH; N-terminus and C-terminus assumed) | – | – | – | – | – | – | – | Cytotoxic CTL response, % vs WT1+ allo APC with restricting HLA allele loaded with WT1 peptide ([1]; HLA allele B3501): 63%; Cytotoxic activity against panel of allogeneic CAMs loaded with peptide, each sharing one HLA allele ([1]; peptide loaded autologous targets and targets expressing HLA-B3501, not targets sharing other alleles): selectively lysed; Cytotoxic CTL response, % vs WT1- allo APC with restricting HLA allele ([2]; HLA allele B3501): 3%; Cytotoxic CTL response, % vs WT1- autologous APC (WT1- autologous APC; HLA allele B3501): 0%; Cytotoxic CTL response, % vs WT1 peptide loaded autologous APC ([3]; HLA allele B3501): 50%; Cytotoxic CTL response, % vs WT1+ leukemia (WT1+ leukemia; HLA allele B3501): 45%; Cytotoxic CTL response, % vs WT1- leukemia (WT1- leukemia; HLA allele B3501): 5%
